Experimental data: patent US3956338A, “4,6-Dibromo-5-hydroxy-2-pyridine nitrile compounds and method of preparation” (The Dow Chemical Company, priority 1975, dated 1976)

Assays:
plants = assay: Comparison with BROMINIL as post-emergent herbicide, overall; type: in vivo; details: Example 2(C)
Experimental: (§1) All plants were grown in a greenhouse and sprayed with the test solution when they attained 1 to 2 inches in height. The test solutions were made up in water, using a 0.2% Tween 20 surfactant (polyoxyethylene derivative of a fatty acid partial ester of sorbitol) and were applied in a total spray volume equivalent to 300 gallons per acre.

Staphylococcus aureus = assay: Standard screening test, growth inhibition of microorganism; type: cell-based; details: 500 ppm
weeds = assay: Post- and pre-emergent herbicide evaluation, weeds overall; type: in vivo; details: Examples 2(A) and 2(B)
Experimental: (§2) Pots are filled with a sandy soil, and plants of any species considered appropriate (such as pigweed, field bindweed, velvet leaf, cotton, barnyard grass, foxtail, wild oat, and crabgrass) are grown to an average height of 2 to 4 inches. Plants are then sprayed to run-off with an aqueous solution or dispersion containing the test chemical at the desired concentration. The plants are maintained in the greenhouse and are sub-irrigated as necessary. Final readings are made 2 weeks after treatment. Readings represent the percent kill or control of growth on the treated plants when compared to untreated plants, with 0 = no visible effects and 100 = all plants dead. Compounds found active are subsequently tested over a range of rates which are less than the initial rate. […]
(§3) Pots are filled to within 1 inch of the top with a medium-textured soil and seeds of any species considered appropriate (such as pigweed, field bindweed, velvet leaf, cotton, barnyard grass, foxtail, wild oat and crabgrass) are sown in their appropriate area. […] Final readings are made about 2 weeks after treatment, the exact time depending upon the rate of plant growth. Readings are based on the germination and the growth of treated plants compared with that of untreated plants. Readings of 0% = no visible effects and 100% = all plants dead. […]

crop plants = assay: Post- and pre-emergent herbicide evaluation, crop plants overall; type: in vivo; details: at concentrations effective for weed control
Experimental: as §2, §3

Morning Glory [1] = assay: Post-emergent herbicide evaluation (Table I); type: in vivo; details: 2000 ppm, 2 weeks after treatment
Experimental: (§4) Pots are filled with a sandy soil, and plants of any species considered appropriate (such as pigweed, field bindweed, velvet leaf, cotton, barnyard grass, foxtail, wild oat, and crabgrass) are grown to an average height of 2 to 4 inches. Plants are then sprayed to run-off with an aqueous solution or dispersion containing the test chemical at the desired concentration. The plants are maintained in the greenhouse and are sub-irrigated as necessary. Final readings are made 2 weeks after treatment. Readings represent the percent kill or control of growth on the treated plants when compared to untreated plants, with 0 = no visible effects and 100 = all plants dead. Compounds found active are subsequently tested over a range of rates which are less than the initial rate. The procedure is the same as described above except that additional species (such as soybean, corn, wheat, ragweed, Johnson grass, etc.) are used. Additionally, test chemicals may be applied to the soil surface by drenching or as a solid to preclude contact with foliage. If foliage is sprayed, the pots are subsequently maintained by sub-irrigation; if chemical application is made to the soil, the pots are top-watered.

Beans [2] = assay: Post-emergent herbicide evaluation (Table I); type: in vivo; details: 4000 ppm, 2 weeks after treatment
Experimental: as §4

Velvet Leaf [3] = assay: Post-emergent herbicide evaluation (Table I); type: in vivo; details: 2 weeks after treatment
Experimental: as §4

Barnyard Grass [4] = assay: Post-emergent herbicide evaluation (Table I); type: in vivo; details: 4000 ppm, 2 weeks after treatment
Experimental: as §4

Pigweeds [5] = assay: Post-emergent herbicide evaluation (Table I); type: in vivo; details: 1000 ppm, 2 weeks after treatment
Experimental: as §4

White Winter Wheat [6] = assay: Post-emergent herbicide evaluation (Table I); type: in vivo; details: 2000 ppm, 2 weeks after treatment
Experimental: as §4

Sorghum/Milo [7] = assay: Post-emergent herbicide evaluation (Table I); type: in vivo; details: 4000 ppm, 2 weeks after treatment
Experimental: as §4

German Millet [8] = assay: Post-emergent herbicide evaluation (Table I); type: in vivo; details: 4000 ppm, 2 weeks after treatment
Experimental: as §4

Crabgrass [9] = assay: Post-emergent herbicide evaluation (Table I); type: in vivo; details: 4000 ppm, 2 weeks after treatment
Experimental: as §4

Soybeans = assay: Post-emergent herbicide evaluation (Table I); type: in vivo; details: 4000 ppm, 2 weeks after treatment
Experimental: as §4

Wild Oats [10] = assay: Post-emergent herbicide evaluation (Table I); type: in vivo; details: 4000 ppm, 2 weeks after treatment
Experimental: as §4

Cultured Rice [11] = assay: Post-emergent herbicide evaluation (Table I); type: in vivo; details: 4000 ppm, 2 weeks after treatment
Experimental: as §4

Yellow Foxtail [12] = assay: Post-emergent herbicide evaluation (Table I); type: in vivo; details: 4000 ppm, 2 weeks after treatment
Experimental: as §4

Corn [13] = assay: Post-emergent herbicide evaluation (Table I); type: in vivo; details: 4000 ppm, 2 weeks after treatment
Experimental: as §4

Cotton [14] = assay: Post-emergent herbicide evaluation (Table I); type: in vivo; details: 4000 ppm, 2 weeks after treatment
Experimental: as §4

Rape [15] = assay: Post-emergent herbicide evaluation (Table I); type: in vivo; details: 1000 ppm, 2 weeks after treatment
Experimental: as §4

Morning Glory [16] = assay: Pre-emergent herbicide evaluation (Table II); type: in vivo; details: 4 Lbs/Acre, about 2 weeks after treatment
From the text: (§5) Pots are filled to within 1 inch of the top with a medium-textured soil and seeds of any species considered appropriate (such as pigweed, field bindweed, velvet leaf, cotton, barnyard grass, foxtail, wild oat and crabgrass) are sown in their appropriate area. The seeds are then covered with a 1/2 inch layer of a sandy soil and test chemicals formulated at the desired concentration are drenched onto the soil surface in sufficient volume to wet the top 11/2 to 2 inches of soil. The pots are maintained in the greenhouse and are top-watered as necessary. Final readings are made about 2 weeks after treatment, the exact time depending upon the rate of plant growth. Readings are based on the germination and the growth of treated plants compared with that of untreated plants. Readings of 0% = no visible effects and 100% = all plants dead.
(§6) Compounds found active are subsequently tested over a range of rates which are less than the initial rate. The procedure is the same as described above with the exceptions that the seeds of appropriate species (such as soybean, corn, wheat, ragweed, Johnson grass, etc.) are covered with the same medium-textured soil used to fill the pot, and the chemicals are sprayed onto the soil surface at the desired rate in sufficient volume to cover and wet the soil surface. The pots are maintained, top-watered, and graded as described above.

Beans [17] = assay: Pre-emergent herbicide evaluation (Table II); type: in vivo; details: 10 Lbs/Acre, about 2 weeks after treatment
From the text: as §5, §6

Johnson Grass = assay: Pre-emergent herbicide evaluation (Table II); type: in vivo; details: 4 Lbs/Acre, about 2 weeks after treatment
From the text: as §5, §6

Velvet Leaf [18] = assay: Pre-emergent herbicide evaluation (Table II); type: in vivo; details: 10 Lbs/Acre, about 2 weeks after treatment
From the text: as §5, §6

Soybean = assay: Pre-emergent herbicide evaluation (Table II); type: in vivo; details: 4 Lbs/Acre, about 2 weeks after treatment
From the text: as §5, §6

Barnyard Grass [19] = assay: Pre-emergent herbicide evaluation (Table II); type: in vivo; details: 10 Lbs/Acre, about 2 weeks after treatment
From the text: as §5, §6

Pigweeds [20] = assay: Pre-emergent herbicide evaluation (Table II); type: in vivo; details: 2 Lbs/Acre, about 2 weeks after treatment
From the text: as §5, §6

Bindweed [21] = assay: Pre-emergent herbicide evaluation (Table II); type: in vivo; details: 10 Lbs/Acre, about 2 weeks after treatment
From the text: as §5, §6

White Winter Wheat [22] = assay: Pre-emergent herbicide evaluation (Table II); type: in vivo; details: 4 Lbs/Acre, about 2 weeks after treatment
From the text: as §5, §6

Sorghum/Milo [23] = assay: Pre-emergent herbicide evaluation (Table II); type: in vivo; details: about 2 weeks after treatment
From the text: as §5, §6

German Millet [24] = assay: Pre-emergent herbicide evaluation (Table II); type: in vivo; details: 2 Lbs/Acre, about 2 weeks after treatment
From the text: as §5, §6

Crabgrass [25] = assay: Pre-emergent herbicide evaluation (Table II); type: in vivo; details: 10 Lbs/Acre, about 2 weeks after treatment
From the text: as §5, §6

Wild Oats [26] = assay: Pre-emergent herbicide evaluation (Table II); type: in vivo; details: about 2 weeks after treatment
From the text: as §5, §6

Cultured Rice [27] = assay: Pre-emergent herbicide evaluation (Table II); type: in vivo; details: about 2 weeks after treatment
From the text: as §5, §6

Yellow Foxtail [28] = assay: Pre-emergent herbicide evaluation (Table II); type: in vivo; details: 10 Lbs/Acre, about 2 weeks after treatment
From the text: as §5, §6

Corn [29] = assay: Pre-emergent herbicide evaluation (Table II); type: in vivo; details: 4 Lbs/Acre, about 2 weeks after treatment
From the text: as §5, §6

Cotton [30] = assay: Pre-emergent herbicide evaluation (Table II); type: in vivo; details: about 2 weeks after treatment
From the text: as §5, §6

Rape [31] = assay: Pre-emergent herbicide evaluation (Table II); type: in vivo; details: 4 Lbs/Acre, about 2 weeks after treatment
From the text: as §5, §6

two-spotted spider mites = assay: Standard screening test, control of two-spotted spider mites; type: in vivo; details: 400 parts per million
Morning Glory [32] = assay: Comparison with BROMINIL as post-emergent herbicide; type: in vivo; details: Ipomoea, post-emergence; post-emergent spray, 0.2% Tween 20, 300 gallons per acre; read-out: Concentration Required for adequate control
Experimental: as §1

Buckwheat = assay: as above; type: in vivo; details: post-emergence; post-emergent spray, 0.2% Tween 20, 300 gallons per acre; read-out: Concentration Required for adequate control
Experimental: as §1

Wheat = assay: as above; type: in vivo; details: Triticum aestivum, post-emergence; post-emergent spray, 0.2% Tween 20, 300 gallons per acre; read-out: Concentration: minimum required for injury of wheat
Experimental: as §1

Wild Mustard = assay: as above; type: in vivo; details: Brassica, post-emergence; post-emergent spray, 0.2% Tween 20, 300 gallons per acre; read-out: Concentration Required for adequate control
Experimental: as §1

Bindweed [33] = assay: as above; type: in vivo; details: post-emergence; post-emergent spray, 0.2% Tween 20, 300 gallons per acre; read-out: Concentration Required for adequate control
Experimental: as §1

Wild Oats [34] = assay: as above; type: in vivo
Experimental: as §1

Solubility = type: physicochemical

N#Cc1cc(Br)c(O)c(Br)n1 [4,6-dibromo-5-hydroxy-2-pyridine nitrile]
general activity relative to BROMINIL (plants): generally less active than BROMINIL
growth inhibition of Staphylococcus aureus (Staphylococcus aureus): inhibited growth
herbicidal activity against weeds (weeds): moderately active herbicide against weeds
activity against most crop plants (crop plants): low or nil activity against most crop plants
Percent Control (Morning Glory [1]): 100%
Percent Control (Beans [2]): 70%
Percent Control (Velvet Leaf [3]; 1000 ppm): 85%
Percent Control (Velvet Leaf [3]; 2000 ppm): 100%
Percent Control (Barnyard Grass [4]): 75%
Percent Control (Pigweeds [5]): 100%
Percent Control (White Winter Wheat [6]): 0%
Percent Control (Sorghum/Milo [7]): 0%
Percent Control (German Millet [8]): 85%
Percent Control (Crabgrass [9]): 100%
Percent Control (Soybeans): 0%
Percent Control (Wild Oats [10]): 65%
Percent Control (Cultured Rice [11]): 0%
Percent Control (Yellow Foxtail [12]): 70%
Percent Control (Corn [13]): 0%
Percent Control (Cotton [14]): 100%
Percent Control (Rape [15]): 100%
% Control (Morning Glory [16]): 15%
% Control (Beans [17]): 60%
% Control (Johnson Grass): 0%
% Control (Velvet Leaf [18]): 40%
% Control (Soybean): 0%
% Control (Barnyard Grass [19]): 40%
% Control (Pigweeds [20]): 100%
% Control (Bindweed [21]): 25%
% Control (White Winter Wheat [22]): 0%
% Control (Sorghum/Milo [23]; 2 Lbs/Acre): 0%
% Control (Sorghum/Milo [23]; 4 Lbs/Acre): 15%
% Control (German Millet [24]): 40%
% Control (Crabgrass [25]): 50%
% Control (Wild Oats [26]; 4 Lbs/Acre): 70%
% Control (Wild Oats [26]; 10 Lbs/Acre): 85%
% Control (Cultured Rice [27]; 2 Lbs/Acre): 0%
% Control (Cultured Rice [27]; 4 Lbs/Acre): 15%
% Control (Yellow Foxtail [28]): 80%
% Control (Corn [29]): 20%
% Control (Cotton [30]; 4 Lbs/Acre): 0%
% Control (Cotton [30]; 10 Lbs/Acre): 100%
% Control (Rape [31]): 25%
control of two-spotted spider mites (two-spotted spider mites): 100%
minimal effective concentration (Morning Glory [32]): 1000 µg/mL
minimal effective concentration (Buckwheat): 250 µg/mL
minimal effective concentration (Wheat): 2000 µg/mL
minimal effective concentration (Wild Mustard): 62 µg/mL
minimal effective concentration (Bindweed [33]): 4000 µg/mL
minimal effective concentration (Wild Oats [34]; Avena fatua, post-emergence, post-emergent spray, 0.2% Tween 20, 300 gallons per acre, read-out: Concentration Required for adequate control): 500 µg/mL
times more active than BROMINIL against wild oats (Wild Oats [34]; post-emergent, relative to BROMINIL): 8 times
solubility in the common organic solvents (Solubility; common organic solvents): soluble in the common organic solvents
solubility in water (Solubility; water): essentially insoluble in water
